What was measured:
[1] = (§1) The drug is tested on Z-020 corresponding to rabbit gut metagenome with ENA study accession number: PRJEB37062 and ENA sample accession number: ERS12561819 for biotransformation under anaerobic condition. The drug concentrations were measured over 9 timepoints collected between 0 and 24 hours of incubation by liquid-chromatography-coupled mass spectrometry (LC–MS); settings: 2 µM
[2] = as §1, with “Z-009” for “Z-020”, “pig” for “rabbit”, “ERS12561809” for “ERS12561819”; settings: 2 µM
[3] = as §1, with “Z-005” for “Z-020”, “to” for “to rabbit gut”, “ERS12561805” for “ERS12561819”; settings: 2 µM
[4] = as §1, with “Z-003” for “Z-020”, “pig” for “rabbit”, “ERS12561803” for “ERS12561819”; settings: 2 µM
[5] = as §1, with “WLS-370” for “Z-020”, “human” for “rabbit”, “ERS12561793” for “ERS12561819”; settings: 2 µM
[6] = as §1, with “WLS-098” for “Z-020”, “human” for “rabbit”, “ERS12561754” for “ERS12561819”; settings: 2 µM
[7] = as §1, with “WLS-090” for “Z-020”, “human” for “rabbit”, “ERS12561753” for “ERS12561819”; settings: 2 µM
[8] = as §1, with “WLS-038” for “Z-020”, “human” for “rabbit”, “ERS12561745” for “ERS12561819”; settings: 2 µM
[9] = human gut metagenome, 24 h, 2 µM
[10] = human gut metagenome, 24 h, 2 µM; remark: listed apart in the source
[11] = human gut metagenome, 24 h, 2 µM; remark: listed apart in the source
[12] = human gut metagenome, 24 h, 2 µM; remark: listed apart in the source
[13] = human gut metagenome, 24 h, 2 µM; remark: listed apart in the source
[14] = human gut metagenome, 24 h, 2 µM; remark: listed apart in the source
[15] = human gut metagenome, 24 h, 2 µM; remark: listed apart in the source
[16] = human gut metagenome, 24 h, 2 µM; remark: listed apart in the source
[17] = human gut metagenome, 24 h, 2 µM; remark: listed apart in the source
[18] = human gut metagenome, 24 h, 2 µM; remark: listed apart in the source
[19] = human gut metagenome, 24 h, 2 µM; remark: listed apart in the source
[20] = human gut metagenome, 24 h, 2 µM; remark: listed apart in the source
Note: call rule not given here.

| SMILES | Bacterial Biotransformation [1] | Bacterial Biotransformation [2] | Bacterial Biotransformation [3] | Bacterial Biotransformation [4] | Bacterial Biotransformation [5] | Bacterial Biotransformation [6] | Bacterial Biotransformation [7] | Bacterial Biotransformation [8] | Bacterial Biotransformation [9] | Bacterial Biotransformation [10] | Bacterial Biotransformation [11] | Bacterial Biotransformation [12] | Bacterial Biotransformation [13] | Bacterial Biotransformation [14] | Bacterial Biotransformation [15] | Bacterial Biotransformation [16] | Bacterial Biotransformation [17] | Bacterial Biotransformation [18] | Bacterial Biotransformation [19] | Bacterial Biotransformation [20] |
| --- | --- | --- | --- | --- | --- | --- | --- | --- | --- | --- | --- | --- | --- | --- | --- | --- | --- | --- | --- | --- |
| O=C1CN2Cc3c(ccc(Cl)c3Cl)N=C2N1 [ANAGRELIDE] | Compound NOT metabolized | Compound NOT metabolized | Compound NOT metabolized | Compound NOT metabolized | Compound NOT metabolized | Compound metabolized | Compound metabolized | Compound metabolized | Compound NOT metabolized | Compound metabolized | Compound metabolized | Compound metabolized | Compound NOT metabolized | Compound NOT metabolized | Compound NOT metabolized | Compound metabolized | Compound NOT metabolized | Compound NOT metabolized | Compound metabolized | Compound NOT metabolized |
| CN(C)C(=O)Oc1cc(OC(=O)N(C)C)cc(C(O)CNC(C)(C)C)c1 (stereo not given) [BAMBUTEROL] | Compound NOT metabolized | Compound metabolized | Compound NOT metabolized | Compound NOT metabolized | Compound NOT metabolized | Compound metabolized | Compound metabolized | Compound NOT metabolized | Compound NOT metabolized | Compound metabolized | Compound metabolized | Compound metabolized | Compound metabolized | Compound NOT metabolized | Compound NOT metabolized | Compound metabolized | Compound metabolized | Compound NOT metabolized | Compound metabolized | Compound NOT metabolized |
| CC(NC(C)(C)C)C(=O)c1cccc(Cl)c1 (stereo not given) [BUPROPION] | Compound NOT metabolized | Compound NOT metabolized | Compound NOT metabolized | Compound NOT metabolized | Compound NOT metabolized | Compound NOT metabolized | Compound NOT metabolized | Compound NOT metabolized | Compound NOT metabolized | Compound NOT metabolized | Compound NOT metabolized | Compound NOT metabolized | Compound NOT metabolized | Compound NOT metabolized | Compound NOT metabolized | Compound metabolized | Compound NOT metabolized | Compound NOT metabolized | Compound NOT metabolized | Compound NOT metabolized |
| O=C1CC2(CCCC2)CC(=O)N1CCCCN1CCN(c2ncccn2)CC1 [BUSPIRONE] | Compound NOT metabolized | Compound NOT metabolized | Compound NOT metabolized | Compound metabolized | Compound NOT metabolized | Compound metabolized | Compound metabolized | Compound NOT metabolized | Compound metabolized | Compound metabolized | Compound metabolized | Compound NOT metabolized | Compound NOT metabolized | Compound NOT metabolized | Compound metabolized | Compound metabolized | Compound metabolized | Compound NOT metabolized | Compound metabolized | Compound NOT metabolized |
| CCCC(C)(COC(N)=O)COC(=O)NC(C)C (stereo not given) [CARISOPRODOL] | Compound metabolized | Compound metabolized | Compound metabolized | Compound metabolized | Compound metabolized | Compound metabolized | Compound metabolized | Compound metabolized | Compound metabolized | Compound metabolized | Compound NOT metabolized | Compound metabolized | Compound NOT metabolized | Compound metabolized | Compound metabolized | Compound metabolized | Compound metabolized | Compound NOT metabolized | Compound NOT metabolized | Compound NOT metabolized |
| COc1ccccc1OCCNCC(O)COc1cccc2[nH]c3ccccc3c12 (stereo not given) [CARVEDILOL] | Compound NOT metabolized | Compound NOT metabolized | Compound NOT metabolized | Compound NOT metabolized | Compound NOT metabolized | Compound metabolized | Compound metabolized | Compound metabolized | Compound NOT metabolized | Compound NOT metabolized | Compound metabolized | Compound metabolized | Compound NOT metabolized | Compound NOT metabolized | Compound NOT metabolized | Compound metabolized | Compound metabolized | Compound NOT metabolized | Compound metabolized | Compound metabolized |
| CN1CCC[C@@H]1CCO[C@](C)(c1ccccc1)c1ccc(Cl)cc1.O=C(O)/C=C/C(=O)O [CLEMASTINE FUMARATE] | Compound NOT metabolized | Compound NOT metabolized | Compound NOT metabolized | Compound NOT metabolized | Compound metabolized | Compound metabolized | Compound NOT metabolized | Compound metabolized | Compound NOT metabolized | Compound NOT metabolized | Compound metabolized | Compound metabolized | Compound NOT metabolized | Compound metabolized | Compound NOT metabolized | Compound metabolized | Compound NOT metabolized | Compound metabolized | Compound metabolized | Compound NOT metabolized |
| CC(C)(C)NCC(O)c1cc(Cl)c(N)c(Cl)c1 (stereo not given) [CLENBUTEROL] | Compound NOT metabolized | Compound NOT metabolized | Compound NOT metabolized | Compound NOT metabolized | Compound NOT metabolized | Compound NOT metabolized | Compound NOT metabolized | Compound NOT metabolized | Compound NOT metabolized | Compound NOT metabolized | Compound NOT metabolized | Compound NOT metabolized | Compound NOT metabolized | Compound NOT metabolized | Compound NOT metabolized | Compound NOT metabolized | Compound NOT metabolized | Compound NOT metabolized | Compound NOT metabolized | Compound NOT metabolized |
| C[N+]12CCC(CC1)C(OC(=O)C(O)(c1ccccc1)c1ccccc1)C2.[Br-] (stereo not given) [CLIDINIUM BROMIDE] | Compound NOT metabolized | Compound metabolized | Compound NOT metabolized | Compound metabolized | Compound metabolized | Compound NOT metabolized | Compound metabolized | Compound NOT metabolized | Compound NOT metabolized | Compound metabolized | Compound metabolized | Compound NOT metabolized | Compound NOT metabolized | Compound NOT metabolized | Compound NOT metabolized | Compound metabolized | Compound NOT metabolized | Compound NOT metabolized | Compound metabolized | Compound NOT metabolized |

Reference: ChEMBL document CHEMBL5724914, “Linking interpersonal differences in gut microbiota composition and drug biotransformation activity” (2024)
